According to patent US12384808B2, “Modulators of TNF-α activity” (Forward Therapeutics, Inc., priority 2022, dated 2025):

Molecular target: TNFα (Homo sapiens, UniProt P01375)
Assay: TNFα Induced HEK Blue Cellular Assay
Type: cell-based
Settings: HEK Blue TNFα reporter cells, TNFα 100 pg/ml, 24 hrs at 37° C., secreted alkaline phosphatase (QUANTI-Blue) read at 620 nm; read-out: IC50 value
How it was run: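 Reporter cells (10,000/well, DMEM + 10% FBS) with compound (final […] to 0.5 nM) stimulated with 100 pg/ml TNFα, 24 h at 37 °C, 5% CO2. Secreted alkaline phosphatase read at 620 nm; IC50 by 4-parameter logistic fit after background correction against stimulated/unstimulated DMSO controls.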

TNFα, sequence (P01375 77-233 limits assumed): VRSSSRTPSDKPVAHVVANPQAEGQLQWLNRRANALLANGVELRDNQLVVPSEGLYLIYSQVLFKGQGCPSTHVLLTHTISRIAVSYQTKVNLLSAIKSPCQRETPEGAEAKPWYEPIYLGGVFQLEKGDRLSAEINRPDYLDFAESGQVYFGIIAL

Row | SMILES | IC50
1 | CP(C)(=O)c1c(F)cc(-c2ccc3nc4n(c3c2)[C@@H]2C[C@H]4NC(=O)c3cccc(OC(F)F)c32)cc1F [Example 35, (1R,11R)-18-(difluoromethoxy)-5-[4-(dimethylphosphoryl)-3,5-difluorophenyl]-2,9,12-triazapentacyclo[9.8.1.0^{2,10}.0^{3,8}.0^{14,19}]icosa-3(8),4,6,9,14(19),15,17-heptaen-13-one] | 100 to 1000 nM
2 | CN1C(=O)c2cccc(OC(F)F)c2[C@H]2C[C@@H]1c1nc3ccc(-c4ccc(P(C)(C)=O)c(F)c4F)cc3n12 [Example 36, (1R,11R)-18-(difluoromethoxy)-5-[4-(dimethylphosphoryl)-2,3-difluorophenyl]-12-methyl-2,9,12-triazapentacyclo[9.8.1.0^{2,10}.0^{3,8}.0^{14,19}]icosa-3(8),4,6,9,14(19),15,17-heptaen-13-one] | < 100 nM
3 | CN1C(=O)c2cccc(OC(F)F)c2[C@H]2C[C@@H]1c1nc3ccc(-c4cc(F)c(P(C)(C)=O)c(F)c4)cc3n12 [Example 37, (1R,11R)-18-(difluoromethoxy)-5-[4-(dimethylphosphoryl)-3,5-difluorophenyl]-12-methyl-2,9,12-triazapentacyclo[9.8.1.0^{2,10}.0^{3,8}.0^{14,19}]icosa-3(8),4,6,9,14(19),15,17-heptaen-13-one] | < 100 nM
4 | CN1C(=O)c2cccc(OC(F)F)c2[C@H]2C[C@@H]1c1nc3ccc(-c4ccc(OCP(C)(C)=O)cc4)cc3n12 [Example 38, (1R,11R)-18-(difluoromethoxy)-5-{4-[(dimethylphosphoryl)methoxy]phenyl}-12-methyl-2,9,12-triazapentacyclo[9.8.1.0^{2,10}.0^{3,8}.0^{14,19}]icosa-3(8),4,6,9,14(19),15,17-heptaen-13-one] | < 100 nM
5 | CN1C(=O)c2cccc(OC(F)F)c2[C@H]2C[C@@H]1c1nc3ccc(-c4ccc(OCCP(C)(C)=O)nc4)cc3n12 [Example 39, (1R,11R)-18-(difluoromethoxy)-5-{6-[2-(dimethylphosphoryl)ethoxy]pyridin-3-yl}-12-methyl-2,9,12-triazapentacyclo[9.8.1.0^{2,10}.0^{3,8}.0^{14,19}]icosa-3(8),4,6,9,14(19),15,17-heptaen-13-one] | < 100 nM
6 | CN1C(=O)c2cccc(OC(F)F)c2[C@H]2C[C@@H]1c1nc3ccc(-c4ccc(OCCCP(C)(C)=O)nc4)cc3n12 [Example 40, (1R,11R)-18-(difluoromethoxy)-5-{6-[3-(dimethylphosphoryl)propoxy]pyridin-3-yl}-12-methyl-2,9,12-triazapentacyclo[9.8.1.0^{2,10}.0^{3,8}.0^{14,19}]icosa-3(8),4,6,9,14(19),15,17-heptaen-13-one] | 100 to 1000 nM
7 | CP(C)(=O)c1ccc(-c2ccc3nc4n(c3c2)[C@@H]2C[C@H]4NC(=O)c3cccc(OC(F)F)c32)c(Cl)c1 [Example 41, (1R,11R)-5-[2-chloro-4-(dimethylphosphoryl)phenyl]-18-(difluoromethoxy)-2,9,12-triazapentacyclo[9.8.1.0^{2,10}.0^{3,8}.0^{14,19}]icosa-3(8),4,6,9,14(19),15,17-heptaen-13-one] | < 100 nM
8 | CP(C)(=O)COc1ncc(-c2ccc3nc4n(c3c2)[C@@H]2C[C@H]4NC(=O)c3cccc(OC(F)F)c32)s1 [Example 42, (1R,11R)-18-(difluoromethoxy)-5-{2-[(dimethylphosphoryl)methoxy]-1,3-thiazol-5-yl}-2,9,12-triazapentacyclo[9.8.1.0^{2,10}.0^{3,8}.0^{14,19}]icosa-3(8),4,6,9,14(19),15,17-heptaen-13-one] | < 100 nM
9 | CP(C)(=O)c1ccc(-c2ccc3nc4n(c3c2)[C@@H]2C[C@H]4NC(=O)c3cccc(OC(F)F)c32)cc1F [Example 43, (1R,11R)-18-(difluoromethoxy)-5-[4-(dimethylphosphoryl)-3-fluorophenyl]-2,9,12-triazapentacyclo[9.8.1.0^{2,10}.0^{3,8}.0^{14,19}]icosa-3(8),4,6,9,14(19),15,17-heptaen-13-one] | < 100 nM
10 | CCN1C(=O)c2cccc(OC(F)F)c2[C@H]2C[C@@H]1c1nc3ccc(-c4ccc(OCP(C)(C)=O)cc4)cc3n12 [Example 44, (1R,11R)-18-(difluoromethoxy)-5-{4-[(dimethylphosphoryl)methoxy]phenyl}-12-ethyl-2,9,12-triazapentacyclo[9.8.1.0^{2,10}.0^{3,8}.0^{14,19}]icosa-3(8),4,6,9,14(19),15,17-heptaen-13-one] | < 100 nM
11 | CCN1C(=O)c2cccc(OC(F)F)c2[C@H]2C[C@@H]1c1nc3ccc(-c4ccc(P(C)(C)=O)c(F)c4)cc3n12 [Example 45, (1R,11R)-18-(difluoromethoxy)-5-[4-(dimethylphosphoryl)-3-fluorophenyl]-12-ethyl-2,9,12-triazapentacyclo[9.8.1.0^{2,10}.0^{3,8}.0^{14,19}]icosa-3(8),4,6,9,14(19),15,17-heptaen-13-one] | < 100 nM
12 | CCN1C(=O)c2cccc(OC(F)F)c2[C@H]2C[C@@H]1c1nc3ccc(-c4cc(F)c(P(C)(C)=O)c(F)c4)cc3n12 [Example 46, (1R,11R)-18-(difluoromethoxy)-5-[4-(dimethylphosphoryl)-3,5-difluorophenyl]-12-ethyl-2,9,12-triazapentacyclo[9.8.1.0^{2,10}.0^{3,8}.0^{14,19}]icosa-3(8),4,6,9,14(19),15,17-heptaen-13-one] | < 100 nM
13 | CP(C)(=O)c1ccc(-c2ccc3nc4n(c3c2)[C@@H]2C[C@H]4N(C3CC3)C(=O)c3cccc(OC(F)F)c32)cn1 [Example 47, (1R,11R)-12-cyclopropyl-18-(difluoromethoxy)-5-[6-(dimethylphosphoryl)pyridin-3-yl]-2,9,12-triazapentacyclo[9.8.1.0^{2,10}.0^{3,8}.0^{14,19}]icosa-3(8),4,6,9,14(19),15,17-heptaen-13-one] | < 100 nM
14 | CP(C)(=O)c1ccc(-c2ccc3nc4n(c3c2)[C@@H]2C[C@H]4N(C3CC3)C(=O)c3cccc(OC(F)F)c32)cc1F [Example 48, (1R,11R)-12-cyclopropyl-18-(difluoromethoxy)-5-[4-(dimethylphosphoryl)-3-fluorophenyl]-2,9,12-triazapentacyclo[9.8.1.0^{2,10}.0^{3,8}.0^{14,19}]icosa-3(8),4,6,9,14(19),15,17-heptaen-13-one] | < 100 nM
15 | CCN1C(=O)c2cccc(OC(F)F)c2[C@H]2C[C@@H]1c1nc3ccc(-c4ccc(P(C)(C)=O)cc4)cc3n12 [Example 49, (1R,11R)-18-(difluoromethoxy)-5-[4-(dimethylphosphoryl)phenyl]-12-ethyl-2,9,12-triazapentacyclo[9.8.1.0^{2,10}.0^{3,8}.0^{14,19}]icosa-3(8),4,6,9,14(19),15,17-heptaen-13-one] | < 100 nM
16 | CN1C(=O)c2cccc(OC(F)F)c2[C@H]2C[C@@H]1c1nc3ccc(-c4ccc(NP(C)(C)=O)cc4)cc3n12 [Example 50, (1R,11R)-18-(difluoromethoxy)-5-{4-[(dimethylphosphoryl)amino]phenyl}-12-methyl-2,9,12-triazapentacyclo[9.8.1.0^{2,10}.0^{3,8}.0^{14,19}]icosa-3(8),4,6,9,14(19),15,17-heptaen-13-one] | < 100 nM
17 | CCP(=O)(CC)c1ccc(-c2ccc3nc4n(c3c2)[C@@H]2C[C@H]4NC(=O)c3cccc(OC(F)F)c32)cc1F [Example 51, (1R,11R)-5-[4-(diethylphosphoryl)-3-fluorophenyl]-18-(difluoromethoxy)-2,9,12-triazapentacyclo[9.8.1.0^{2,10}.0^{3,8}.0^{14,19}]icosa-3(8),4,6,9,14(19),15,17-heptaen-13-one] | < 100 nM
